Laboratory results taken from ChEMBL document CHEMBL1909294, “Translating clinical findings into knowledge in drug safety evaluation--drug induced liver injury prediction system (DILIps)” (PLoS Comput Biol, 2011).

Tests used:
Hepatotoxicity [1] = tested on: Hepatotoxicity;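 on HepSE Combined Scores: combined hepatic side effect score as listed in the training data of the Drug Induced Liver Injury Prediction System (DILIps)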;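 on HepSE cholecystitis: Cholecystitis-related hepatic side effect score drawn from the DILIps (drug-induced liver injury prediction) training data set; call rule not given here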;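 on HepSE elevated liver function tests: hepatic side effect score for raised liver function tests, as recorded in the DILIps training set used for predicting drug-induced liver injury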; on HepSE hepatic failure: call rule not given here;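 on HepSE hepatitis: Hepatitis-related hepatic side effect score taken from the training data of DILIps, a prediction system for drug-induced liver injury; call rule not given here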;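 on HepSE liver fatty: hepatic side effect score for fatty liver, taken from the DILIps training set for predicting drug-induced liver injury; call rule not given here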;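 on HepSE liver function tests abnormal: hepatic side effect score taken from the DILIps (drug-induced liver injury prediction system) training data, here covering abnormal liver function test findings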
Hepatotoxicity [2] = tested on: Hepatotoxicity; remark: listed apart in the source;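 on HepSE cholecystitis: Cholecystitis-related hepatic side effect score drawn from the DILIps (drug-induced liver injury prediction) training data set; call rule not given here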;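 on HepSE elevated liver function tests: hepatic side effect score for raised liver function tests, as recorded in the DILIps training set used for predicting drug-induced liver injury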; on HepSE hepatic failure: call rule not given here;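 on HepSE hepatitis: Hepatitis-related hepatic side effect score taken from the training data of DILIps, a prediction system for drug-induced liver injury; call rule not given here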;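 on HepSE liver fatty: hepatic side effect score for fatty liver, taken from the DILIps training set for predicting drug-induced liver injury; call rule not given here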;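 on HepSE liver function tests abnormal: hepatic side effect score taken from the DILIps (drug-induced liver injury prediction system) training data, here covering abnormal liver function test findings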
Hepatotoxicity [3] = tested on: Hepatotoxicity; remark: listed apart in the source;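 on HepSE cholecystitis: Cholecystitis-related hepatic side effect score drawn from the DILIps (drug-induced liver injury prediction) training data set; call rule not given here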;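 on HepSE elevated liver function tests: hepatic side effect score for raised liver function tests, as recorded in the DILIps training set used for predicting drug-induced liver injury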; on HepSE hepatic failure: call rule not given here;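 on HepSE hepatitis: Hepatitis-related hepatic side effect score taken from the training data of DILIps, a prediction system for drug-induced liver injury; call rule not given here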;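 on HepSE liver fatty: hepatic side effect score for fatty liver, taken from the DILIps training set for predicting drug-induced liver injury; call rule not given here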;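 on HepSE liver function tests abnormal: hepatic side effect score taken from the DILIps (drug-induced liver injury prediction system) training data, here covering abnormal liver function test findings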
Hepatotoxicity [4] = tested on: Hepatotoxicity; remark: listed apart in the source;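 on HepSE cholecystitis: Cholecystitis-related hepatic side effect score drawn from the DILIps (drug-induced liver injury prediction) training data set; call rule not given here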;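 on HepSE elevated liver function tests: hepatic side effect score for raised liver function tests, as recorded in the DILIps training set used for predicting drug-induced liver injury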; on HepSE hepatic failure: call rule not given here;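 on HepSE hepatitis: Hepatitis-related hepatic side effect score taken from the training data of DILIps, a prediction system for drug-induced liver injury; call rule not given here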;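 on HepSE liver fatty: hepatic side effect score for fatty liver, taken from the DILIps training set for predicting drug-induced liver injury; call rule not given here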;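 on HepSE liver function tests abnormal: hepatic side effect score taken from the DILIps (drug-induced liver injury prediction system) training data, here covering abnormal liver function test findings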
Hepatotoxicity [5] = tested on: Hepatotoxicity; remark: listed apart in the source; on HepSE hepatic failure: call rule not given here
Hepatotoxicity [6] = tested on: Hepatotoxicity; remark: listed apart in the source; on HepSE hepatic failure: call rule not given here
Hepatotoxicity [7] = tested on: Hepatotoxicity; remark: listed apart in the source
Hepatotoxicity [8] = tested on: Hepatotoxicity; remark: listed apart in the source
Hepatotoxicity [9] = tested on: Hepatotoxicity; remark: listed apart in the source
Hepatotoxicity [10] = tested on: Hepatotoxicity; remark: listed apart in the source
Hepatotoxicity [11] = tested on: Hepatotoxicity; remark: listed apart in the source
Hepatotoxicity [12] = tested on: Hepatotoxicity; remark: listed apart in the source
Hepatotoxicity [13] = tested on: Hepatotoxicity; remark: listed apart in the source
Hepatotoxicity [14] = tested on: Hepatotoxicity; remark: listed apart in the source

SMILES | HepSE_cholecystitis (Hepatotoxicity [1]) | HepSE_hepatic failure (Hepatotoxicity [2]) | HepSE_liver fatty (Hepatotoxicity [3]) | HepSE_elevated liver function tests (Hepatotoxicity [4]) | HepSE_hepatitis (Hepatotoxicity [5]) | HepSE_liver function tests abnormal (Hepatotoxicity [6]) | HepSE_Combined Scores (Hepatotoxicity [7]) | HepSE_cirrhosis (Hepatotoxicity [8]) | HepSE_hepatic necrosis (Hepatotoxicity [9]) | HepSE_cholelithiasis (Hepatotoxicity [10]) | HepSE_liver disease (Hepatotoxicity [11]) | HepSE_hepatomegaly (Hepatotoxicity [12]) | HepSE_bilirubinemia (Hepatotoxicity [13]) | HepSE_jaundice (Hepatotoxicity [14])
CCCCCCCN(CC)CCCC(O)c1ccc(NS(C)(=O)=O)cc1 (stereo not drawn) [IBUTILIDE] | 0 | 0 | 0 | 1 | 0 | 0 | 1 | 0 | 0 | 0 | 0 | 0 | 0 | 0
CC(=O)[C@]1(O)Cc2c(O)c3c(c(O)c2[C@@H](O[C@H]2C[C@H](N)[C@H](O)[C@H](C)O2)C1)C(=O)c1ccccc1C3=O [IDARUBICIN] | 0 | 0 | 0 | 0 | 0 | 0 | 0 | 0 | 0 | 0 | 0 | 0 | 0 | 0
O=c1[nH]c(=O)n([C@H]2C[C@H](O)[C@@H](CO)O2)cc1I [IDOXURIDINE] | 0 | 0 | 0 | 0 | 0 | 0 | 0 | 0 | 0 | 0 | 0 | 0 | 0 | 0
O=P1(NCCCl)OCCCN1CCCl (stereo not drawn) [IFOSFAMIDE] | 0 | 0 | 0 | 0 | 0 | 0 | 0 | 0 | 0 | 0 | 0 | 0 | 0 | 0
CC#CCC(C)[C@H](O)/C=C/[C@@H]1[C@H]2C/C(=C/CCCC(=O)O)C[C@H]2C[C@H]1O (stereo partly drawn) [ILOPROST] | 0 | 0 | 0 | 0 | 0 | 0 | 0 | 0 | 0 | 0 | 0 | 0 | 0 | 0
CN(C)CCCN1c2ccccc2CCc2ccccc21 [IMIPRAMINE] | 0 | 0 | 0 | 0 | 0 | 0 | 1 | 0 | 0 | 0 | 0 | 0 | 0 | 1
CC(C)Cn1cnc2c(N)nc3ccccc3c21 [IMIQUIMOD] | 0 | 0 | 0 | 0 | 0 | 0 | 0 | 0 | 0 | 0 | 0 | 0 | 0 | 0
C#CC1(O)CCC2C3CCC4=CC(=O)CCC4C3C(=C)CC21CC (stereo not drawn) [IMPLANON] | 0 | 0 | 0 | 0 | 0 | 0 | 0 | 0 | 0 | 0 | 0 | 0 | 0 | 0
Nc1cc(-c2ccncc2)c[nH]c1=O [INAMRINONE] | 0 | 0 | 0 | 0 | 0 | 0 | 1 | 0 | 0 | 0 | 0 | 0 | 0 | 1
CC1Cc2ccccc2N1NC(=O)c1ccc(Cl)c(S(N)(=O)=O)c1 (stereo not drawn) [INDAPAMIDE] | 0 | 0 | 0 | 0 | 1 | 1 | 3 | 0 | 0 | 0 | 0 | 0 | 0 | 1
COc1ccc2c(c1)c(CC(=O)O)c(C)n2C(=O)c1ccc(Cl)cc1 [INDOMETHACIN] | 0 | 0 | 0 | 0 | 0 | 0 | 1 | 0 | 0 | 0 | 0 | 0 | 0 | 1
II [IODINE] | 0 | 0 | 0 | 0 | 1 | 0 | 1 | 0 | 0 | 0 | 0 | 0 | 0 | 0
O=C(CCCCC(=O)Nc1c(I)cc(I)c(C(=O)O)c1I)Nc1c(I)cc(I)c(C(=O)O)c1I [IODIPAMIDE] | 0 | 0 | 0 | 0 | 0 | 0 | 0 | 0 | 0 | 0 | 0 | 0 | 0 | 0
CC(=O)N(CC(O)CN(C(C)=O)c1c(I)c(C(=O)NCC(O)CO)c(I)c(C(=O)NCC(O)CO)c1I)c1c(I)c(C(=O)NCC(O)CO)c(I)c(C(=O)NCC(O)CO)c1I (stereo not drawn) [IODIXANOL] | 0 | 0 | 0 | 0 | 0 | 0 | 0 | 0 | 0 | 0 | 0 | 0 | 0 | 0
CC(=O)N(CC(O)CO)c1c(I)c(C(=O)NCC(O)CO)c(I)c(C(=O)NCC(O)CO)c1I (stereo not drawn) [IOHEXOL] | 0 | 0 | 0 | 0 | 0 | 0 | 0 | 0 | 0 | 0 | 0 | 0 | 0 | 0
C[C@H](O)C(=O)Nc1c(I)c(C(=O)NC(CO)CO)c(I)c(C(=O)NC(CO)CO)c1I [IOPAMIDOL] | 0 | 0 | 0 | 0 | 0 | 0 | 0 | 0 | 0 | 0 | 0 | 0 | 0 | 0
COCC(=O)Nc1c(I)c(C(=O)NCC(O)CO)c(I)c(C(=O)N(C)CC(O)CO)c1I (stereo not drawn) [IOPROMIDE] | 0 | 0 | 0 | 0 | 0 | 0 | 0 | 0 | 0 | 0 | 0 | 0 | 0 | 0
